According to patent US6362183B1, “Aromatic sulfonyl alpha-hydroxy hydroxamic acid compounds” (G. D. Searle & Company, priority 1997, dated 2002):

Experiments:
Test in all cases: In vitro metalloprotease inhibition, fluorogenic peptide assay
Type in all cases: biochemical
recombinant human MMP-1 = molecular target: T1, recombinant human MMP-1 (Homo sapiens, UniProt P03956); conditions: for IC50: APMA-activated enzyme, MCA peptide substrate 4 μM, room temperature, pH 7.5; for inhibitory activity against MMP-1 (in words): discussion of Table 51
T1 construct: made in house; host or cells: transfected HT-1080 cells
T1 sequence (P03956 100-469): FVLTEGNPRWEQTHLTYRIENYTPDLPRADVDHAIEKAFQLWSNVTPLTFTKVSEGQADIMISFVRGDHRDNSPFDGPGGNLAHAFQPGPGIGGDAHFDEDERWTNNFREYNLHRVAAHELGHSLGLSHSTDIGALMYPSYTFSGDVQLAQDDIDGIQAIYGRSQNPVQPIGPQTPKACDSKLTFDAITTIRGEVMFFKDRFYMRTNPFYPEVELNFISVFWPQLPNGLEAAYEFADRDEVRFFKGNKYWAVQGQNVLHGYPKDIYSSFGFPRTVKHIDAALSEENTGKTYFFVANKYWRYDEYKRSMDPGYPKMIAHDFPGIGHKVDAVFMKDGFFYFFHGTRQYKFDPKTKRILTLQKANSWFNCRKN
Protocol: (§1) Briefly, 4-aminophenylmercuric acetate (APMA) or trypsin activated MMPs were incubated with various concentrations of the inhibitor compound at room temperature for 5 minutes.
(§2) More specifically, recombinant human MMP-13 and MMP-1 enzymes were prepared in laboratories of the assignee. MMP-13 was expressed in baculovirus as a proenzyme, and purified first over a heparin agarose column and then over a chelating zinc chloride column. The proenzyme was activated by APMA for use in the assay. MMP-1 expressed in transfected HT-1080 cells was provided by Dr. Howard Welgus of Washington University, St. Louis, Mo. The enzyme was also activated using APMA and was then purified over a hydroxamic acid column.
(§3) MCA-ProLeuGlyLeuDpaAlaArgNH^2, wherein MCA is methoxycoumarin and Dpa is 3-(2,4-dinitrophenyl)-L-2,3-diaminopropionyl alanine.
(§4) The buffer used for assays contained 100 mM Tris-HCl, 100 mM NaCl, 10 mM CaCl2 and 0.05 percent polyethyleneglycol (23) lauryl ether at a pH value of 7.5.

recombinant human MMP-13 = molecular target: T2, recombinant human MMP-13 (Homo sapiens, UniProt P45452); conditions: for IC50: APMA-activated enzyme, MCA peptide substrate 4 μM, room temperature, pH 7.5; for inhibitory activity against MMP-13 (in words): discussion of Table 51
T2 construct: made in house
Protocol: as §1, §2, §3, §4

MMP-2 = molecular target: T3, MMP-2 (Homo sapiens, UniProt P08253); conditions: for IC50: MCA peptide substrate 4 μM, room temperature, pH 7.5
T3 sequence (P08253 110-660): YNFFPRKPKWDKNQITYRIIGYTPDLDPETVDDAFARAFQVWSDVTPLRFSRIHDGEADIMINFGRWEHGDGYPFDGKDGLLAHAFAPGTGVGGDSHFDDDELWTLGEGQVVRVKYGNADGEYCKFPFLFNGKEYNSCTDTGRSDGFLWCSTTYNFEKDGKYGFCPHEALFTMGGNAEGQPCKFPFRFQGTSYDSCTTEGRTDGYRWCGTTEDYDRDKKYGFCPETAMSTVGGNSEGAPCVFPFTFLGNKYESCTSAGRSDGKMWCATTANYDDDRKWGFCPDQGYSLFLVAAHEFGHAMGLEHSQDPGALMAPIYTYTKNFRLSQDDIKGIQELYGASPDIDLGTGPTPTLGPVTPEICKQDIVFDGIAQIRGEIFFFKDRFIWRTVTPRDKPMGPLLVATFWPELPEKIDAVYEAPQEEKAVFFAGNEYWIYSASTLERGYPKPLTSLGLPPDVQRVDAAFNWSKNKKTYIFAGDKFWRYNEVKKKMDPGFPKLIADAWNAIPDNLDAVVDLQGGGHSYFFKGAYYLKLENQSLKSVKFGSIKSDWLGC
Protocol: as §1, §3, §4

MMP-9 = MMP-9 (Homo sapiens, UniProt P14780); conditions: MCA peptide substrate 4 μM, room temperature, pH 7.5
Protocol: as §1, §3, §4

MMP-9, sequence (P14780 107-707 limits assumed, species assumed): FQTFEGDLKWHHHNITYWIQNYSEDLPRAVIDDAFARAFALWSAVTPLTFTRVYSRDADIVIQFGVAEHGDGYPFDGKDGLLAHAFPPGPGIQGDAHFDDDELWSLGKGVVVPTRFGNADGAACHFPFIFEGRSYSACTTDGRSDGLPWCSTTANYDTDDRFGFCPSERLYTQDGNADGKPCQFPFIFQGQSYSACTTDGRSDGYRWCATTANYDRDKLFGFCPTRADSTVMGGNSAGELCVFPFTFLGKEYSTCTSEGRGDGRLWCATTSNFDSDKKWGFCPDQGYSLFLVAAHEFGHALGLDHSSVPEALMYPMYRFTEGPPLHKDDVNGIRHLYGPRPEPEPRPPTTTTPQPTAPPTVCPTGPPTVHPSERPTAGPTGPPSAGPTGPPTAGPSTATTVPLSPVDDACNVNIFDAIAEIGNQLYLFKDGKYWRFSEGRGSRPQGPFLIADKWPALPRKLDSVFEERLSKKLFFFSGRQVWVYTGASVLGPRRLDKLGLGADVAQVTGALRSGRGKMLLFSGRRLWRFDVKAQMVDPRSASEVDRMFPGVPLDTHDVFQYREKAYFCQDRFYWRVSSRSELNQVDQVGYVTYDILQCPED

| IC50 (recombinant human MMP-1) [nM] | IC50 (recombinant human MMP-13) [nM] | IC50 (MMP-2) [nM] | IC50 (MMP-9) [nM] | SMILES | inhibitory activity against MMP-1 (in words) (recombinant human MMP-1) | inhibitory activity against MMP-13 (in words) (recombinant human MMP-13) | inhibitory activity against MMP-2 (in words) (MMP-2; discussion of Table 51) |
| --- | --- | --- | --- | --- | --- | --- | --- |
| 8000 | 30 | 14.8 |  | COCC(O)(CS(=O)(=O)c1ccc(Oc2ccccc2)cc1)C(=O)NO (stereo not drawn) [Example 6, N,2-dihydroxy-2-(methoxymethyl)-3-[(4-phenoxyphenyl)sulfonyl]propanamide] |  |  |  |
| > 10000 | 200 |  |  | COc1ccc(S(=O)(=O)CC(O)C(=O)NO)cc1 (stereo not drawn) [Example 8, N,2-dihydroxy-3-[(4-methoxyphenyl)sulfonyl]propanamide] | relatively inactive | only slightly better |  |
| 4000 | 1 | 0.4 | 18 | O=C(NO)[C@@H](O)CS(=O)(=O)c1ccc(Oc2ccccc2)cc1 [Example 10, (R)—N,2-dihydroxy-3-[(4-phenoxyphenyl)sulfonyl]propanamide] |  |  |  |
| 7000 | 5 | 7 | 66 | O=C(NO)[C@H](O)CS(=O)(=O)c1ccc(Oc2ccccc2)cc1 [Example 11, (S)—N,2-dihydroxy-3-[(4-phenoxyphenyl)sulfonyl]propanamide] |  |  |  |
| > 10000 | 3.7 | 2 | 175 | O=C(NO)C(O)CS(=O)(=O)c1ccc(Sc2ccccc2)cc1 (stereo not drawn) [Example 12, N,2-dihydroxy-3-[[4-(phenylthio)phenyl]sulfonyl]propanamide] |  |  |  |
| > 10000 | 5 | 2.3 | 70 | O=C(NO)C(O)(CO)CS(=O)(=O)c1ccc(Sc2ccccc2)cc1 (stereo not drawn) [Example 13] |  |  |  |
| > 10000 | 0.5 | < 0.1 |  | CCCCCc1ccc(C(=O)Nc2ccc(S(=O)(=O)CC(C)(O)C(=O)NO)cc2)cc1 (stereo not drawn) [Example 14, N-[4-[[2-hydroxy-3-(hydroxyamino)-2-methyl-3-oxopropyl]sulfonyl]phenyl]pentylbenzamide] |  |  |  |
| > 10000 | 3200 | 87 |  | CC(O)(CS(=O)(=O)c1ccc(NC(=O)Nc2ccccc2)cc1)C(=O)NO (stereo not drawn) [Example 15, N,2-dihydroxy-2-methyl-3-[[4-[((phenylamino)carbonyl)amino]phenyl]sulfonyl]propanamide] |  |  |  |
| > 10000 | 900 | 400 |  | CC(C)CC(=O)Nc1ccc(S(=O)(=O)CC(C)(O)C(=O)NO)cc1 (stereo not drawn) [Example 17, N-[4-[[2-hydroxy-3-(hydroxyamino)-2-methyl-3-oxopropyl]sulfonyl]phenyl]-3-methylbutanamide] |  |  |  |
| > 10000 | 13 | 0.5 |  | CC(O)(CS(=O)(=O)c1ccc(NC(=O)c2ccc(Cl)cc2)cc1)C(=O)NO (stereo not drawn) [Example 18] |  |  |  |
| > 10000 | 10000 | 2600 |  | Cc1ccccc1NC(=O)Nc1ccc(S(=O)(=O)CC(C)(O)C(=O)NO)cc1 (stereo not drawn) [Example 19, N,2-dihydroxy-2-methyl-3-[[4-[[[(2-methylphenyl)amino]carbonyl]amino]phenyl]sulfonyl]propanamide] |  |  |  |
| > 10000 | 6600 | 300 |  | Cc1cccc(NC(=O)Nc2ccc(S(=O)(=O)CC(C)(O)C(=O)NO)cc2)c1 (stereo not drawn) [Example 20, N,2-dihydroxy-2-methyl-3-[[4-[[[(3-methylphenyl)amino]carbonyl]amino]phenyl]sulfonyl]propanamide] |  |  |  |
| > 10000 | 3600 | 34 |  | Cc1ccc(NC(=O)Nc2ccc(S(=O)(=O)CC(C)(O)C(=O)NO)cc2)cc1 (stereo not drawn) [Example 21, N,2-dihydroxy-2-methyl-3-[[4-[[[(4-methylphenyl)amino]carbonyl]amino]phenyl]sulfonyl]propanamide] |  |  |  |
| > 10000 | 280 | 6.7 |  | CC(O)(CS(=O)(=O)c1ccc(NC(=O)c2ccc(Cl)nc2)cc1)C(=O)NO (stereo not drawn) [Example 22, 6-chloro-N-(4-[[2-hydroxy-3-(hydroxyamino)-2-methyl-3-oxopropyl]sulfonyl]phenyl]-3-pyridinecarboxamide] |  |  |  |
| > 10000 | 220 | 2.8 | 1330 | O=C(Nc1ccc(S(=O)(=O)CC(O)C(=O)NO)cc1)c1ccccc1 (stereo not drawn) [Example 23, N-[4-[[2-hydroxy-3-(hydroxyamino)-3-oxopropyl]sulfonyl]phenyl]benzamide] |  |  |  |
| > 10000 | < 0.1 | < 0.1 |  | CCCCCCCOc1ccc(C(=O)Nc2ccc(S(=O)(=O)CC(C)(O)C(=O)NO)cc2)cc1 (stereo not drawn) [Example 24, 4-(heptyloxy)-N-[4-[[2-hydroxy-3-(hydroxyamino)-2-methyl-3-oxopropyl]sulfonyl]phenyl]benzamide] | lower than could be measured in the assay | greater than could be measured in the assay | greater than could be measured in the assay |
| > 10000 | 1.2 | 0.1 |  | CCCc1ccc(C(=O)Nc2ccc(S(=O)(=O)CC(C)(O)C(=O)NO)cc2)cc1 (stereo not drawn) [Example 26, N-[4-[[2-hydroxy-3-(hydroxyamino)-2-methyl-3-oxopropyl]-sulfonyl]phenyl]4-propylbenzamide] |  |  |  |
| > 10000 | 666 | 10 |  | COc1cccc(C(=O)Nc2ccc(S(=O)(=O)CC(C)(O)C(=O)NO)cc2)c1 (stereo not drawn) [Example 27] |  |  |  |
| > 10000 | 0.8 | < 0.1 |  | CCCCc1ccc(C(=O)Nc2ccc(S(=O)(=O)CC(C)(O)C(=O)NO)cc2)cc1 (stereo not drawn) [Example 28, 4-butyl-N-[4-[[2-hydroxy-3-(hydroxyamino) -2-methyl-3-oxopropyl]-sulfonyl]phenyl]benzamide] |  |  |  |
| > 10000 | 80 | 1.8 |  | CC(O)(CS(=O)(=O)c1ccc(NC(=O)c2cccc(F)c2)cc1)C(=O)NO (stereo not drawn) [Example 29] |  |  |  |
| > 10000 | 316 | 20 |  | Cc1cccc(C(=O)Nc2ccc(S(=O)(=O)CC(C)(O)C(=O)NO)cc2)c1 (stereo not drawn) [Example 30, N-[4-[[2-hydroxy-3-(hydroxyamino)-2-methyl-3-oxopropyl]sulfonyl]phenyl]-3-methylbenzamide] |  |  |  |
| > 10000 | 600 | 37.2 |  | CC(O)(CS(=O)(=O)c1ccc(NC(=O)c2cccc(Cl)c2)cc1)C(=O)NO (stereo not drawn) [Example 31, 3-chloro-N-[4-[[2-hydroxy-3-(hydroxyamino)-2-methyl-3-oxopropyl]sulfonyl]phenyl]benzamide] |  |  |  |
| > 10000 | 80 | 1.6 |  | CC(O)(CS(=O)(=O)c1ccc(NC(=O)c2ccc(F)c(F)c2)cc1)C(=O)NO (stereo not drawn) [Example 32, 3,4-difluoro-N-[4-[[2-hydroxy-3-(hydroxyamino)-2-methyl-3-oxopropyl]sulfonyl]phenyl]benzamide] |  |  |  |
| > 10000 | 1600 | 50 |  | CC(O)(CS(=O)(=O)c1ccc(NC(=O)c2cccc([N+](=O)[O-])c2)cc1)C(=O)NO (stereo not drawn) [Example 33] |  |  |  |
| > 10000 | 1600 | 32.7 |  | CC(O)(CS(=O)(=O)c1ccc(NC(=O)c2cccc(NCCCCO)c2)cc1)C(=O)NO (stereo not drawn) [Example 34] |  |  |  |
| > 10000 | 290 | 6.7 |  | CC(O)(CS(=O)(=O)c1ccc(NC(=O)c2cccc(N)c2)cc1)C(=O)NO (stereo not drawn) [Example 35, 3-amino-N-[4-[[2-hydroxy-3-(hydroxyamino)-2-methyl-3-oxopropyl]-sulfonyl]phenyl]benzamide] |  |  |  |

| SMILES | IC50 (recombinant human MMP-1) [nM] | IC50 (recombinant human MMP-13) [nM] | IC50 (MMP-2) [nM] | IC50 (MMP-9) [nM] | inhibitory activity against MMP-1 (in words) (recombinant human MMP-1) | inhibitory activity against MMP-13 (in words) (recombinant human MMP-13) | inhibitory activity against MMP-2 (in words) (MMP-2; discussion of Table 51) |
| --- | --- | --- | --- | --- | --- | --- | --- |
| CCCCOc1ccc(C(=O)Nc2ccc(S(=O)(=O)CC(C)(O)C(=O)NO)cc2)cc1 (stereo not drawn) [Example 25, 4-butoxy-N-[4-[[2-hydroxy-3-(hydroxyamino)-2-methyl-3-oxopropyl]sulfonyl]phenyl]benzamide] | > 10000 | 1.2 | 0.2 |  |  |  |  |
